In US9669005B2, “Use of naringenin in preparing drugs for preventing and/or treatment abdominal aortic aneurysm” (priority 2013, dated 2017):

How the values were obtained:
NMP-9 and NMP-2 = experiment: Gelatin zymography, angiotensin II model; format: in vivo; settings: AngII ApoE-/- mice; naringenin gavage; FIG. 8B
Experimental: After extravasated blood in fresh removed blood vessels of infrarenal site in abdominal aortas of mice were cleared, and fat and connective tissues were removed, and blood vessels were cut into 1 cm ring, and put into 24-well plate. Blood vessels were cultured for 24 hours using 0.5 ml serum-free medium with high glucose. After the cultured supernatant protein was quantified, mercaptoethanol-free protein sample loading buffer was added, cryopreserved at −80° C. Water was used to prepare gelatin (Sigma-Aldrich, St. Louis, Mo.) into a concentration of 10 mg/ml, which was added to separation gel of protein electrophoresis according to the proportion of 1:10, causing the final concentration of gelatin as 1 mg/ml. Electrophoresis was performed in a voltage of 80V at 4° C. The gel was put into 0.25% Trixon-100 solution, and washing was performed twice in 30 minutes. […] Incubated gel was put into Coomassie brilliant blue to stain for 1-2 hours at room temperature, washed for 30 minutes with a solution having 30% methanol and 10% glacial acetic acid, a solution having 20% methanol and 10% glacial acetic acid, and a solution having 10% methanol and 5% glacial acetic acid, respectively, and then analyzed with Odyssey infrared fluorescence scanning system (LI-COR Biosciences, Lincoln, Nebr.). […]

[1] = test system: inflammatory cell (macrophage and leukocyte) in adventitia; experiment: Immunofluorescent staining of inflammatory cells (Mac3, CD45), angiotensin II model; format: in vivo; settings: AngII ApoE-/- mice; naringenin gavage vs water; FIG. 7A
Text: CD45 and Mac3 were results of immunofluorescent staining on […].

Which “active form of NMP-9 and NMP-2 (gelatin zymography)” value (NMP-9 and NMP-2) does the source give for O=C1C[C@@H](c2ccc(O)cc2)Oc2cc(O)cc(O)c21 [naringenin] here?
Its value is “do not change significantly”.

And the “zymogen form of MMP-9 (gelatin zymography)” value (NMP-9 and NMP-2)?
Its value is “significantly decreases”.

And the “infiltration of inflammatory cell (macrophage and leukocyte) in adventitia” value [1]?
The value was “significantly reduce”.
